Data as given in US7786142B2, “Heterocyclic compounds as pSTAT3/IL-6 inhibitors” (Orchid Research Laboratories, Ltd., priority 2005, dated 2010).

Key:
NCIH460 cells = assay: Anti-cancer screen (MTT), NCIH460 cells; format: cell-based; details: Homo sapiens, NCI-H460, NCIH460, 48 hours, concentrations tested 0.01-100 μM; for CC50: read-out: LC50 (the source's name)
Method: (§1) Experimental drugs are screened for anti-cancer activity in three cell lines for their GI50, TGI and LC50 values (using five concentrations for each compound). The cell lines are maintained in DMEM containing 10% fetal bovine serum. 96 well micro titer plates are inoculated with cells in 100 μL for 24 hours at 37° C., 5% CO2, 95% air and 100% relative humidity. 5000 HCT116 cells/well, 5000 NCIH460 cells/well and 5000 U251 cells/well are plated. A separate plate with these cell lines is also inoculated to determine cell viability before the addition of the compounds (T0), (See Table I).
(§2) Following 24-hours incubation, experimental drugs are added to the 96 well plates. Each plate contains one of the above cell lines and the following in triplicate: five different concentrations (0.01, 0.1, 1, 10 and 100 μM) of four different compounds, appropriate dilutions of a cytotoxic standard and control (untreated) wells. Compounds are dissolved in DMSO to make 20 mM stock solutions on the day of drug addition and frozen at −20° C. Serial dilutions of these 20 mM stock solutions are made in complete growth medium such that 100 μL of these drug solutions in medium, of final concentrations equaling 0.01, 0.1, 1, 10 and 100 μM can be added to the cells in triplicate. Standard drugs whose anti-cancer activity has been well documented and which are regularly used are Doxorubicin and SAHA, (See Table I).
(§3) For T0 measurement, 24 hours after seeding the cells, 10 μL of 3-(4,5-Dimethyl-2-thiazolyl)-2,5-diphenyl-2H-tetrazolium (MTT) solution per well is added and incubation carried out for 3 hours at 37° C., 5% CO2, 95% air and 100% relative humidity, protected from light. Cells incubated with compounds for 48 hours are treated similarly except with the addition of 20 μL MTT solution per well and a subsequent incubation under the same conditions. After 3 hours of MTT incubation, well contents are aspirated carefully followed by addition of 150 μL DMSO per well. Plates are agitated to ensure solution of the formazan crystals in DMSO and absorbance read at 570 nm, (See Table I).
(§4) Percent growth is calculated for each compound's concentration relative to the control and zero measurement wells (T0; viability right before compound addition). If a test well's O.D. value is greater than the T0 measurement for that cell line % Growth=(test−zero)/(control−zero)×100

HCT116 cells = assay: Anti-cancer screen (MTT), HCT116 cells; format: cell-based; details: Homo sapiens, HCT-116, HCT116, 48 hours, concentrations tested 0.01-100 μM
Method: as §1, §2, §3, §4

MDAMB-231/U 251 = assay: Anti-cancer screen (MTT), MDAMB-231/U 251 cells; format: cell-based; details: MDAMB-231/U 251, 48 hours, concentrations tested 0.01-100 μM; for CC50: read-out: LC50 (the source's name)
Method: as §1, §2, §3, §4

[1] = system: NCIH460, HCT116, MDAMB-231/U 251; assay: Anti-cancer screen, mean GI50 over the cell lines; format: cell-based
Method: as §1, §2, §3, §4

IL-6 = IL-6 in culture supernatants of NCIH 460 cells (ELISA); format: cell-based, Human; details: Homo sapiens, NCI-H460, NCIH 460, 5 hours
Method: Human Lung Cancer cell line (NCIH 460) is used for IL-6 measurement. 5000 cells/well were seeded in a 96 well plate and incubated in CO2 incubator at 37° C. for 24 hours. After 24 hours of incubation the medium from all wells were completed removed and added 100 μl of fresh DMEM containing 10% FCS. 100 μl of different concentrations of the drug were added and incubated for 5 hours in CO2 incubator at 37° C. After 5 hours of incubation the supernatants were collected and stored at −80° C. The concentration of IL-6 in the supernatant was measured using ELISA kit and the IC50 value of the compound was determined from the dose response curve, (See Table II).

Row | SMILES | GI50 (NCIH460 cells) [µM] | IC (TGI) (NCIH460 cells) [µM] | CC50 (NCIH460 cells) [µM] | GI50 (HCT116 cells) [µM] | IC (TGI) (HCT116 cells) [µM] | LC50 (concentration for 50% net cell kill relative to T0) (HCT116 cells) [µM] | GI50 (MDAMB-231/U 251) [µM] | IC (TGI) (MDAMB-231/U 251) [µM] | CC50 (MDAMB-231/U 251) [µM] | GI50 [1] [µM] | inhibition at 1 µM (IL-6; 1 μM) [%] | inhibition at 10 µM (IL-6) [%] | IC50 (IL-6; read-out: IL-6 Inhibition IC50) [µM]
1 | O=C(c1ccc([N+](=O)[O-])o1)N1CCN(CC(O)COc2cccc3[nH]c4ccccc4c23)CC1 (stereo not drawn) [Example 35, 1-(9H-carbazol-4-yloxy)-3-{4-(5-nitro-2-furoyl)piperazin-1-yl}propan-2-ol] | 0.8 | 7.5 | 60 | 6 | 42 | 85 | 3 | > 100 | > 100 | 3.27 | 45 | 80.4 | 
2 | COc1cc(NCC(O)COc2cccc3[nH]c4ccccc4c23)cc(OC)c1OC (stereo not drawn) [Example 8] | 15 | 45 | 75 | 5.8 | 22 | 90 | 5 | 50 | > 100 | 8.6 |  |  | 
3 | OC(CNCc1ccccc1)COc1cccc2[nH]c3ccccc3c12 (stereo not drawn) [Example 23, 1-(9H-carbazol-4-yloxy)-3-benzylaminopropan-2-ol] | 0.79 | 35 | 70 | 18 | 47 | 77 | 1 | 10 | 65 | 6.6 |  | 29.3 | 24
4 | Cc1csc(NC(=O)CN2CCN(CC(O)COc3cccc4[nH]c5ccccc5c34)CC2)n1 (stereo not drawn) [Example 60, 2-{4-[3-(9H-carbazol-4-yloxy)-2-hydroxypropyl]-piperazin-1-yl}-N-(4-methyl-1,3-thiazol-2-yl)acetamide] | 24 | 61 | 85 | 26 | 62 | 100 | > 100 | > 100 | > 100 | 25 |  |  | 
5 | Cc1cccc2sc(NC(=O)CN3CCN(CC(O)COc4cccc5[nH]c6ccccc6c45)CC3)nc12 (stereo not drawn) [Example 59, 2-{4-[3-(9H-carbazol-4-yloxy)-2-hydroxypropyl]-piperazin-1-yl}-N-(4-methyl-1,3-benzothiazol-2-yl)acetamide] | 9.5 | > 100 | > 100 | > 100 | > 100 | > 100 | 47 | > 100 | > 100 | 28.2 |  |  | 
6 | COc1cc(CN2CCN(CC(O)COc3cccc4[nH]c5ccccc5c34)CC2)cc(OC)c1 (stereo not drawn) [Example 30, 1-(9H-carbazol-4-yloxy)-3-[4-(3,5-dimethoxybenzyl)piperazin-1-yl]propan-2-ol] | 30 | 60 | 90 | 25 | 72 | 84 | 2.5 | 9 | 70 | 19.2 |  |  | 
7 | Cc1cc(C)nc(NCC(O)COc2cccc3[nH]c4ccccc4c23)n1 (stereo not drawn) [Example 15, 1-(9H-carbazol-4-yloxy)-3-[(4,6-dimethylpyrimidin-2-yl)amino]propan-2-ol] | > 100 | > 100 | > 100 | > 100 | > 100 | > 100 | 8 | > 100 | > 100 | 8 |  |  | 
8 | OC(COc1cccc2[nH]c3ccccc3c12)CN1CCN(Cc2ccc(F)c(F)c2)CC1 (stereo not drawn) [Example 31, 1-(9H-carbazol-4-yloxy)-3-[4-(3,4-difluorobenzyl)piperazin-1-yl]propan-2-ol] | 35 | 90 | 65 | 38 | 66 | 92 | 4 | 7 | 10 | 25.7 |  |  | 
9 | O=C(Cc1ccc(F)cc1)N1CCC(NCC(O)COc2cccc3[nH]c4ccccc4c23)CC1 (stereo not drawn) [Example 66] | 14 | 54 | 79 | 26 | 49 | 84 | 15 | 48 | 77 | 18.3 |  |  | 
10 | OC(CNc1nc2ccccc2[nH]1)COc1cccc2[nH]c3ccccc3c12 (stereo not drawn) [Example 19, 1-(1H-Benzimidazol-2-ylamino)-3-(9H-carbazol-4-yloxy)propan-2-ol] | 7.5 | 35 | 70.5 | 27 | 52 | 79 | 51.5 | 67 | 85 | 28.7 |  |  | 
11 | O=[N+]([O-])c1ccc(CN2CCN(CC(O)COc3cccc4[nH]c5ccccc5c34)CC2)o1 (stereo not drawn) [Example 26, 1-(9H-carbazol-4-yloxy)-3-{4-[(5-nitro-2-furyl)methyl]piperazin-1-yl}propan-2-ol] | 2 | 22 | 70 | 30 | 48 | 68 | 30 | 85 | > 100 | 20.7 |  |  | 
12 | OC(COc1cccc2[nH]c3ccccc3c12)CN1CCNCC1 (stereo not drawn) [Example 3, 1-(9H-carbazol-4-yloxy)-3-piperazin-1-ylpropan-2-ol] | 27 | 54 | 80 | 7 | 36 | 72 | 55 | 77 | > 100 | 29.7 |  |  | 
13 | OC(COc1cccc2[nH]c3ccccc3c12)CN1CCc2sccc2C1 (stereo not drawn) [Example 4, 1-(9H-carbazol-4-yloxy)-3-(6,7-dihydrothieno[3,2-c]pyridin-5(4H)-yl)propan-2-ol] | 18 | 47 | 80 | 32 | 57 | 82 | 34 | 59 | 84 | 28 |  |  | 
14 | O=[N+]([O-])c1ccc(CN2CCN(CC(O)COc3cccc4[nH]c5ccccc5c34)CC2)s1 (stereo not drawn) [Example 27, 1-(9H-carbazol-4-yloxy)-3-{4-[(5-nitro-2-thienyl)methyl]piperazin-1-yl}propan-2-ol] | 45 | 98 | > 100 | 30 | 60 | 90 | 2.8 | 48 | > 100 | 25.9 |  |  | 
